Assay results taken from ChEMBL document CHEMBL3217468 (Medchemcomm, 2012).
≈ marks a conversion by molar mass, not a printed value.

Experiments:
[1] = tested on: Staphylococcus epidermidis; assay: Antibacterial activity against wild type Staphylococcus epidermidis by CLSI broth microdilution method; format: functional
[2] = tested on: Staphylococcus aureus; assay: Antibacterial activity against wild type Staphylococcus aureus by CLSI broth microdilution method; format: functional
[3] = tested on: Escherichia coli; assay: Antibacterial activity against wild type Escherichia coli by CLSI broth microdilution method; format: functional
[4] = tested on: Pseudomonas aeruginosa; assay: Antibacterial activity against wild type Pseudomonas aeruginosa by CLSI broth microdilution method; format: functional
[5] = tested on: Streptococcus agalactiae; assay: Antibacterial activity against wild type Streptococcus agalactiae by CLSI broth microdilution method; format: functional
[6] = tested on: Streptococcus pneumoniae; assay: Antibacterial activity against wild type Streptococcus pneumoniae by CLSI broth microdilution method; format: functional
[7] = tested on: Staphylococcus epidermidis; assay: Antibacterial activity against Staphylococcus epidermidis harboring mutant SPase by CLSI broth microdilution method; format: functional
[8] = tested on: Staphylococcus aureus; assay: Antibacterial activity against Staphylococcus aureus harboring mutant SPase by CLSI broth microdilution method; format: functional
[9] = tested on: Escherichia coli; assay: Antibacterial activity against Escherichia coli harboring mutant SPase by CLSI broth microdilution method; format: functional
[10] = tested on: Pseudomonas aeruginosa; assay: Antibacterial activity against Pseudomonas aeruginosa harboring mutant SPase by CLSI broth microdilution method; format: functional
[11] = tested on: Staphylococcus epidermidis; assay: Antibacterial activity against Staphylococcus epidermidis assessed as growth inhibition; format: functional
[12] = tested on: Prescottella equi; assay: Antibacterial activity against Rhodococcus equi harboring SPase with valine or isoleucine residue at position 29 by modified CLSI microbroth dilution method; format: functional; details: Rhodococcus (subgen. Prescottella) equi
[13] = Binding affinity to Escherichia coli delta 2 to 75 truncated type 1 signal peptidase by fluorescence analysis
[14] = tested on: Staphylococcus epidermidis; assay: Antibacterial activity against Staphylococcus epidermidis harboring wild type SPase by modified CLSI microbroth dilution method; format: functional
[15] = tested on: Staphylococcus epidermidis; assay: Antibacterial activity against Staphylococcus epidermidis harboring SPase S29P mutant gene by modified CLSI microbroth dilution method; format: functional
[16] = tested on: Staphylococcus aureus; assay: Antibacterial activity against Staphylococcus aureus harboring wild type SPase by modified CLSI microbroth dilution method; format: functional
[17] = tested on: Staphylococcus aureus; assay: Antibacterial activity against Staphylococcus aureus harboring SPase P29S mutant gene by modified CLSI microbroth dilution method; format: functional
[18] = tested on: Escherichia coli; assay: Antibacterial activity against Escherichia coli harboring wild type SPase by modified CLSI microbroth dilution method; format: functional
[19] = tested on: Escherichia coli; assay: Antibacterial activity against Escherichia coli harboring SPase P84S mutant gene by modified CLSI microbroth dilution method; format: functional
[20] = tested on: Pseudomonas aeruginosa; assay: Antibacterial activity against Pseudomonas aeruginosa harboring wild type SPase by modified CLSI microbroth dilution method; format: functional
[21] = tested on: Pseudomonas aeruginosa; assay: Antibacterial activity against Pseudomonas aeruginosa harboring SPase P84S mutant gene by modified CLSI microbroth dilution method; format: functional
[22] = tested on: Staphylococcus epidermidis; assay: Antibacterial activity against Staphylococcus epidermidis harboring SPase with serine residue at position 29 by modified CLSI microbroth dilution method; format: functional
[23] = tested on: Staphylococcus haemolyticus; assay: Antibacterial activity against Staphylococcus haemolyticus harboring SPase with serine residue at position 29 by modified CLSI microbroth dilution method; format: functional
[24] = tested on: Rhodococcus opacus; assay: Antibacterial activity against Rhodococcus opacus harboring SPase with valine residue at position 29 by modified CLSI microbroth dilution method; format: functional
[25] = tested on: Corynebacterium glutamicum; assay: Antibacterial activity against Corynebacterium glutamicum harboring SPase with methionine residue at position 29 by modified CLSI microbroth dilution method; format: functional
[26] = tested on: Helicobacter pylori; assay: Antibacterial activity against Helicobacter pylori harboring SPase with alanine residue at position 29 by modified CLSI microbroth dilution method; format: functional
[27] = tested on: Chlamydia trachomatis; assay: Antibacterial activity against Chlamydia trachomatis harboring SPase with leucine residue at position 29 by modified CLSI microbroth dilution method; format: functional
[28] = tested on: Streptococcus pneumoniae; assay: Antibacterial activity against Streptococcus pneumoniae harboring SPase with aspargine residue at position 29 by modified CLSI microbroth dilution method; format: functional
[29] = tested on: Streptococcus pyogenes; assay: Antibacterial activity against Streptococcus pyogenes harboring SPase with alanine residue at position 29 by modified CLSI microbroth dilution method; format: functional
[30] = tested on: Lactococcus lactis; assay: Antibacterial activity against Lactococcus lactis harboring SPase with leucine residue at position 29 by modified CLSI microbroth dilution method; format: functional

Structure (SMILES) | MIC [1] [µg/mL] | MIC [2] [µg/mL] | MIC [3] [µg/mL] | MIC [4] [µg/mL] | MIC [5] [µg/mL] | MIC [6] [µg/mL] | MIC [7] [µg/mL] | MIC [8] [µg/mL] | MIC [9] [µg/mL] | MIC [10] [µg/mL] | MIC [11] [µg/mL] | also measured
CCCCCCCCCCCCCCCC(=O)N(C)[C@H](CO)C(=O)N[C@H](C)C(=O)NCC(=O)N(C)[C@@H]1C(=O)N[C@@H](C)C(=O)N[C@H](C(=O)O)Cc2cc(c(O)c([N+](=O)[O-])c2)-c2cc1ccc2O | 0.25 (≈ 0.27 µM) | > 64 | > 64 | > 64 | 8 (≈ 8.64 µM) | 16 (≈ 17.3 µM) | 8 (≈ 8.64 µM) | 4 (≈ 4.32 µM) | 2 (≈ 2.16 µM) | 8 (≈ 8.64 µM) |  | 
CCCCCCCCCCCCCCCC(=O)N(C)[C@H](CO)C(=O)N[C@H](C)C(=O)NCC(=O)N(C)[C@@H]1C(=O)N[C@@H](C)C(=O)N[C@H](C(=O)O)Cc2ccc(O)c(c2)-c2cc1ccc2O[C@@H]1O[C@@H](C)[C@H](O)[C@@H](O)[C@H]1O | 0.25 (≈ 0.243 µM) | > 64 | > 64 | > 64 | > 64 | 8 (≈ 7.79 µM) | 8 (≈ 7.79 µM) | 4 (≈ 3.89 µM) | 2 (≈ 1.95 µM) | 16 (≈ 15.6 µM) |  | 
CC(C)CCCCCCCCC(=O)N(C)[C@H](CO)C(=O)N[C@H](C)C(=O)NCC(=O)N(C)[C@@H]1C(=O)N[C@@H](C)C(=O)N[C@H](C(=O)O)Cc2ccc(O)c(c2)-c2cc1ccc2O [ARYLOMYCIN A2] |  |  |  |  |  |  |  |  |  |  | 0.5 (≈ 0.606 µM) | 
CCCCCCCCCCCCCCCC(=O)N(C)[C@H](CO)C(=O)N[C@H](C)C(=O)NCC(=O)N(C)[C@@H]1C(=O)N[C@@H](C)C(=O)N[C@H](C(=O)O)Cc2ccc(O)c(c2)-c2cc1ccc2O [ARYLOMYCIN C16] | 0.25 (≈ 0.284 µM) | > 64 | > 64 | > 64 | > 64 | 8 (≈ 9.08 µM) | 8 (≈ 9.08 µM) | 4 (≈ 4.54 µM) | 2 (≈ 2.27 µM) | 8 (≈ 9.08 µM) | 0.5 (≈ 0.567 µM) | MIC [12]: 16 µg/mL (≈ 18.2 µM); Kd [13]: 0.979 µM; MIC [14]: 0.25 µg/mL (≈ 0.284 µM); MIC [15]: 8 µg/mL (≈ 9.08 µM); MIC [16]: > 128 µg/mL; MIC [17]: 2 µg/mL (≈ 2.27 µM); MIC [18]: > 128 µg/mL; MIC [19]: 4 µg/mL (≈ 4.54 µM); MIC [20]: > 128 µg/mL; MIC [21]: 8 µg/mL (≈ 9.08 µM); MIC [22]: 0.25 µg/mL (≈ 0.284 µM); MIC [23]: 2 µg/mL (≈ 2.27 µM); MIC [24]: 2 µg/mL (≈ 2.27 µM); MIC [25]: 2 µg/mL (≈ 2.27 µM); MIC [26]: 4 µg/mL (≈ 4.54 µM); MIC [27]: 6 µg/mL (≈ 6.81 µM); MIC [28]: 16 µg/mL (≈ 18.2 µM); MIC [29]: 16 µg/mL (≈ 18.2 µM); MIC [30]: > 128 µg/mL
